Test results published in ChEMBL document CHEMBL4340572, “Gentiopicroside isolated from Gentiana scabra Bge. inhibits adipogenesis in 3T3-L1 cells and reduces body weight in diet-induced obese mice” (Bioorg Med Chem Lett, 2019).
The source made the active and inactive calls. The calls are words filed in the database; no cut-off is given here.

Experiments:
[1] = tested on: Mus musculus; assay: Antiobesity activity in HFD-induced obese C57BL/6N mouse model assessed as decrease in visceral fat mass at 50 mg/kg, po administered once daily for 12 weeks; type: functional, organism-based
[2] = tested on: Mus musculus; assay: Antiobesity activity in HFD-induced obese C57BL/6N mouse model assessed as decrease in epididymal fat mass level at 50 mg/kg, po administered once daily for 12 weeks; type: functional, organism-based
[3] = tested on: 3T3-L1; assay: Anti-adipogenic activity in mouse 3T3L1 cells grown in differentiation media assessed as decrease in lipid accumulation up to 10 uM incubated for 8 days by Oil Red O staining based method; type: functional
[4] = tested on: 3T3-L1; assay: Anti-adipogenic activity in mouse 3T3L1 cells grown in differentiation media assessed as decrease in lipid accumulation incubated for 8 days by Oil Red O staining based method; type: functional, cell-based
[5] = tested on: 3T3-L1; assay: Downregulation of FABP4 mRNA expression in mouse 3T3L1 cells up to 10 uM incubated for 8 days followed by compound wash out measured by RT-PCR method; type: functional, cell-based
[6] = tested on: 3T3-L1; assay: Inhibition of cell differentiation in mouse 3T3L1 cells assessed as reduction in pre-adipocyte differentiation into matured adipocytes at 5 uM incubated for 8 days followed by compound wash out measured by oil red O staining based method relative to control; type: functional; settings: 3T3-L1, 192 h
[7] = tested on: Mus musculus; assay: Antiobesity activity in HFD-induced obese C57BL/6N mouse model assessed as reduction in epididymal WAT adipocyte size at 50 mg/kg, po administered once daily for 12 weeks by H and E staining based microscopic method; type: functional, organism-based
[8] = tested on: 3T3-L1; assay: Downregulation of FAS mRNA expression in mouse 3T3L1 cells up to 10 uM incubated for 8 days followed by compound wash out measured by RT-PCR method; type: functional, cell-based
[9] = tested on: 3T3-L1; assay: Downregulation of LPL mRNA expression in mouse 3T3L1 cells up to 10 uM incubated for 8 days followed by compound wash out measured by RT-PCR method; type: functional, cell-based
[10] = tested on: 3T3-L1; assay: Downregulation of C/EBPalpha mRNA expression in mouse 3T3L1 cells up to 10 uM incubated for 8 days followed by compound wash out measured by RT-PCR method; type: functional, cell-based
[11] = tested on: 3T3-L1; assay: Antiinflammatory activity in mouse 3T3L1 cells assessed as reduction in IL-6 mRNA expression up to 10 uM incubated for 8 days followed by compound wash out measured by RT-PCR method; type: functional, cell-based
[12] = tested on: 3T3-L1; assay: Cytotoxicity against mouse 3T3L1 cells assessed as reduction in cell viability up to 10 uM; type: cell-based
[13] = tested on: 3T3-L1; assay: Antiinflammatory activity in mouse 3T3L1 cells assessed as reduction in NFkappaB1 mRNA expression level up to 10 uM incubated for 8 days followed by compound wash out measured by RT-PCR method; type: functional, cell-based
[14] = tested on: 3T3-L1; assay: Downregulation of PPARgamma mRNA expression in mouse 3T3L1 cells up to 10 uM incubated for 8 days followed by compound wash out measured by RT-PCR method; type: functional, cell-based
[15] = tested on: Mus musculus; assay: Antiobesity activity in HFD-induced obese C57BL/6N mouse model assessed as decrease in body weight at 50 mg/kg, po administered once daily for 12 weeks and measured every week for 12 weeks; type: functional, organism-based
[16] = tested on: 3T3-L1; assay: Downregulation of SCD1 mRNA expression in mouse 3T3L1 cells up to 10 uM incubated for 8 days followed by compound wash out measured by RT-PCR method; type: functional, cell-based
[17] = tested on: 3T3-L1; assay: Antiinflammatory activity in mouse 3T3L1 cells assessed as reduction in TNFalpha mRNA expression up to 10 uM incubated for 8 days followed by compound wash out measured by RT-PCR method; type: functional, cell-based
[18] = tested on: 3T3-L1; assay: Downregulation of DGAT2 mRNA expression in mouse 3T3L1 cells up to 10 uM incubated for 8 days followed by compound wash out measured by RT-PCR method; type: functional, cell-based
[19] = tested on: 3T3-L1; assay: Downregulation of SREBP-1c mRNA expression in mouse 3T3L1 cells up to 10 uM incubated for 8 days followed by compound wash out measured by RT-PCR method; type: functional, cell-based

For `C=C[C@@H]1C2=CCOC(=O)C2=CO[C@H]1O[C@@H]1O[C@H](CO)[C@@H](O)[C@H](O)[C@H]1O` [GENTIOPICROSIDE], the Activity [1] was “Active”, the Activity [2] was “Active” and the “inhibition (INH)” value [3] was “<=64%”. The Activity [4] was “Dose-dependent effect”, the Activity [5] was “Active” and the inhibition at 5 µM [6] was at most 72%. For the same compound, the Activity [7] was “Active”, the Activity [8] was “Active” and the Activity [9] was “Active”. The Activity [10] was “Active”, the Activity [11] was “Active” and the Activity [12] was “Non-Toxic”. The Activity [13] was “Active”, the Activity [14] was “Active” and the Activity [15] was “Active”. The Activity [16] was “Active”, the Activity [17] was “Active” and the Activity [18] was “Active”. For the same compound, the Activity [19] was “Active”.
